The compounds below were run against human EP3 receptor (Homo sapiens (Human), UniProt P43115) (assay: EP3 Radioligand SPA Binding Assay). Conditions: [3H]-PGE2 displacement, Millipore EP3 Chem1 membranes; geometric mean Ki, calculated from IC50 by Cheng-Prusoff.
human EP3 receptor, sequence (P43115 whole entry): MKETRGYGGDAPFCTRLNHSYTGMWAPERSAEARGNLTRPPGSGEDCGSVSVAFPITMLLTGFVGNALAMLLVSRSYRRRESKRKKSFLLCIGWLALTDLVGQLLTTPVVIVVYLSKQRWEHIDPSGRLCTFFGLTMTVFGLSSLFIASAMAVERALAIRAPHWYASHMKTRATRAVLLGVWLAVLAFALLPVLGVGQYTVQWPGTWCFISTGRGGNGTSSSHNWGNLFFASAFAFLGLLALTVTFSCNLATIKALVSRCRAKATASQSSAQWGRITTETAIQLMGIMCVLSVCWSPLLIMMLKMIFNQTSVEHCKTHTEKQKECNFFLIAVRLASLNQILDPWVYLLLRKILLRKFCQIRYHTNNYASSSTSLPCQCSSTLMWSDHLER
Protocol: EP3 Radioligand SPA Binding Assay
Compound affinity was expressed as a […], defined as the concentration of compound required to decrease [^3H] PGE2 binding by 50% for a specific membrane batch at a given concentration of radioligand.
Test compounds were half log serially diluted in 100% DMSO (J. T. Baker #922401). 1 μL of each compound was added to appropriate wells of a 384-well plate (Matrix Cat #4322). Unlabeled PGE2 (Tocris Cat #2296) at a final concentration of 1 μM was used to determine non-specific binding. 1 μL of 100% DMSO (J. T. Baker #922401) was used to determine total binding. Millipore EP3 Chem1 membranes (prepared in-house from cell paste derived from the Millipore ChemiSCREEN™ Human Recombinant EP3 Prostanoid Receptor Calcium-Optimized Stable Cell Line (Millipore Cat #HTS092C. http://www.millipore.com/catalogue/item/hts092c)) were thawed and diluted in binding buffer (50 mM Hepes pH 7.4 (Lonza Cat #17-737), 5 mM MgCl2 (Sigma-M1028), and 0.1% BSA (Sigma A-7409)) to a final concentration of 1 μg/25 μL. 25 μL of diluted membranes were added to prepared compound plates. WGA coated PVT SPA Beads (Perkin Elmer Cat #RPNQ0060) were diluted in binding buffer to a concentration of 4 μg/ul, and 25 μL of the SPA bead mixture was then added to each well for a final assay concentration of 100 μg/well. [^3H]-PGE2 (Perkin Elmer Cat #NET428) was diluted in binding buffer to a concentration of […], and 25 μL was added to all wells for a final assay concentration of 1.125 nM. Plates were incubated for 30 minutes at r.t. (approximately 25° C.) with shaking. Radioactivity associated with each well was measured after a 10 hour incubation using a Wallac Trilux MicroBeta plate-based scintillation counter and a normalized protocol at 1 minute read/well. The Kd for [^3H]-PGE2 was determined by carrying out saturation binding, with data analysis by non-linear regression, fit to a one-site hyperbola (Graph Pad Prism). IC50 determinations were made from competition curves, analyzed with a proprietary curve fitting program (SIGHTS) and a 4-parameter logistic dose response equation. Ki values were calculated from IC50 values, using the Cheng-Prusoff equation.
Results are reported as geometric mean Ki values.
CCn1ncc2c(F)cc(-c3ccc([C@@]4(C)CCCNC4=O)c(=O)[nH]3)cc21 [Example 1, (R)-6-(1-ethyl-4-fluoro-1H-indazol-6-yl)-3-(3-methyl-2-oxopiperidin-3-yl)pyridin-2(1H)-one] was tested, and the Ki was 2 nM.
In the case of Cn1ncc2c(Cl)cc(-c3ccc([C@@]4(C)CCCNC4=O)c(=O)[nH]3)cc21 [Example 2, (R)-6-(4-chloro-1-methyl-1H-indazol-6-yl)-3-(3-methyl-2-oxopiperidin-3-yl)pyridin-2(1H)-one], the Ki is reported as 3.6 nM.
For CCn1ncc2c(C)cc(-c3ccc([C@@]4(C)CCCNC4=O)c(=O)[nH]3)cc21 [Example 3, (R)-6-(1-ethyl-4-methyl-1H-indazol-6-yl)-3-(3-methyl-2-oxopiperidin-3-yl)pyridin-2(1H)-one], the Ki was 9.5 nM.
For Cn1ccc2ccc(-c3ccc([C@@]4(C)CCCNC4=O)c(=O)[nH]3)cc21 [Example 4, (R)-6-(1-methyl-1H-indol-6-yl)-3-(3-methyl-2-oxopiperidin-3-yl)pyridin-2(1H)-one], the Ki was 11.2 nM.
Cn1ccc2cc(-c3ccc([C@@]4(C)CCCNC4=O)c(=O)[nH]3)ccc21 [Example 5, (R)-6-(1-methyl-1H-indol-5-yl)-3-(3-methyl-2-oxopiperidin-3-yl)pyridin-2(1H)-one] showed a Ki of 12.2 nM.
In the case of Cn1ccc2cc(-c3ccc([C@@]4(C)CCNC4=O)c(=O)[nH]3)ccc21 [Example 6, (R)-6-(1-methyl-1H-indol-5-yl)-3-(3-methyl-2-oxopyrrolidin-3-yl)pyridin-2(1H)-one], the Ki is reported as 46 nM.
Work on Cn1cnc2cc(-c3ccc([C@@]4(C)CCCNC4=O)c(=O)[nH]3)cc(Cl)c21 [Example 7, (R)-6-(7-chloro-1-methyl-1H-benzo[d]imidazol-5-yl)-3-(3-methyl-2-oxopiperidin-3-yl)pyridin-2(1H)-one] yielded a Ki of 7.8 nM.
With Cn1ncc2c(Cl)cc(-c3ccc([C@@]4(C)CCNC4=O)c(=O)[nH]3)cc21 [Example 8, (R)-6-(4-chloro-1-methyl-1H-indazol-6-yl)-3-(3-methyl-2-oxopyrrolidin-3-yl)pyridin-2(1H)-one] the Ki was 14.2 nM.
Cn1ccc2cc(-c3ccc([C@@]4(C)CCNC4=O)c(=O)[nH]3)cc(F)c21 [Example 9, (R)-6-(7-fluoro-1-methyl-1H-indol-5-yl)-3-(3-methyl-2-oxopyrrolidin-3-yl)pyridin-2(1H)-one] gave a Ki of 11.9 nM.
Compound CCn1ccc2ccc(-c3ccc([C@@]4(C)CCNC4=O)c(=O)[nH]3)cc21 [Example 10, (R)-6-(1-ethyl-1H-indol-6-yl)-3-(3-methyl-2-oxopyrrolidin-3-yl)pyridin-2(1H)-one] has a Ki of 19.9 nM.
Work on Cc1cc(-c2ccc([C@@]3(C)CCCNC3=O)c(=O)[nH]2)cc2c1cnn2C [Example 12, (R)-6-(1,4-dimethyl-1H-indazol-6-yl)-3-(3-methyl-2-oxopiperidin-3-yl)pyridin-2(1H)-one] yielded a Ki of 25 nM.
C[C@]1(c2ccc(-c3cc(F)c4[nH]nc(C5CC5)c4c3)[nH]c2=O)CCCNC1=O [Example 14, (R)-6-(3-cyclopropyl-7-fluoro-1H-indazol-5-yl)-3-(3-methyl-2-oxopiperidin-3-yl)pyridin-2(1H)-one] showed a Ki of 29.2 nM.

Reference: patent US9278953B2, “Antagonists of prostaglandin EP3 receptor” (Pfizer Inc., priority 2013, dated 2016)
